According to PMC6805555, “Characterization of resistance to a potent D-peptide HIV entry inhibitor” (Retrovirology, 2019):

Experiments:
[1] = system: HIV-1 HXB2 Env Q577R pseudotyped HIV-1; format: cell-based; details: for C-peptide inhibition of Q577R compared to WT pseudoviruses: in words
Description: (§1) Supplementary file 12977_2019_489_MOESM3_ESM.pdf: Additional file 3. Effect of Q577R on C-peptide Inhibitors. Single-cycle viral infectivity assays in which HIV-1 HXB2 Env (WT and Q577R) pseudotyped HIV-1 with a luciferase reporter was used to infect HOS-LES cells in the absence or presence of six fivefold dilutions of the indicated C-peptide (in quadruplicate). The data are the average of two experiments with the standard deviation in parentheses.

[2] = system: enfuvirtide resistance mutations in HIV-1; details: next-generation L-peptide fusion inhibitors; cited from earlier work
Description: The remarkable conservation of this gp41 hydrophobic pocket target is indicative of its critical roles in the viral life cycle and impedes the ability of the virus to combat inhibitors that target it. The region of the HIV-1 genome encoding the pocket is conserved at both the protein level (for the role of gp41 in membrane fusion during viral entry) and nucleotide level (due to a structured RNA region in the critical Rev-response element). The only FDA-approved HIV fusion inhibitor, enfuvirtide (Fuzeon), is an L-peptide derived from the gp41 C-peptide region that targets the gp41 N-trime ...

[3] = system: IZN36 Q577R (gp41 N-peptide mimic); format: binding, HIV-1 (HXB2 strain); details: Q577R vs. WT IZN36
Description: A Q577R mutant version was generated via site-directed mutagenesis using the QuikChange® protocol (Stratagene). […] The cysteine residues of these constructs were biotinylated for SPR.
Protein interaction analysis was carried out on a Biacore 3000 (GE Healthcare). Analyses were performed in triplicate at 25 °C in sterile-filtered and degassed Gibco® PBS pH 7.4 (Invitrogen) supplemented with 0.005% P20 and 1 mg/mL BSA at a flow rate of 50 μL/min. First, streptavidin (Pierce) was immobilized on CM5 chips (GE Healthcare) using the Amine Coupling Kit (GE Healthcare) following a standard coupling protocol [36]. […] Injections were performed for 1 min using KINJECT. Dissociation was monitored for 2 min, followed by a 20 μL injection (QUICKINJECT) of running buffer followed by EXTRACLEAN. Sensorgrams were processed using Scrubber2 (BioLogic Software), and data were analyzed with Prism 5.0 (GraphPad Software). The equilibrium binding data were fit using the built-in saturation binding model (one site—specific binding), normalized to Bmax, and replotted as concentration of analyte vs. % capacity.

[4] = system: HIV-1 HXB2 Env WT pseudotyped HIV-1; format: cell-based; details: HXB2 Env WT pseudotyped HIV-1, luciferase reporter, HOS-LES cells, six fivefold dilutions in quadruplicate; average of two experiments (SD)
Description: as §1

HIV-1 strain NL4-3 = details: similar passaging studies; cited from earlier work
Description: This extremely high affinity for the transiently exposed gp41 trimer provides a reserve of binding energy (resistance capacitor) to prevent the viral resistance pathway of stepwise accumulation of modest affinity-disrupting mutations. Such modest mutations would not affect PIE12-trimer potency and therefore not confer a selective advantage. Viral pa ... || We previously reported the selection of HIV-1 populations resistant to PIE12-trimer by passaging the lab-adapted NL4-3 strain in the presence of escalating suboptimal (partially inhibiting) concentrations of inhibitor, starting with 1 nM. Ultimately, PIE12-trimer resistant virus propagating in 320 nM PIE12-trimer was obtained after 65 weeks of passaging. Duplicate selections yielded two highly resistant polyclonal viral pools (W1 and W2). As previously reported, similar passaging studies with enfuvirtide led to high-level resistance (> 1000-fold) within ~ 3 weeks. […] We therefore investigated the growth kinetics of the NL4-3-based replication competent Q577 point mutants and the polyclonal viral pools (W1 and W2) and compared them to that of the native virus (clonal NL4-3, WT).

Q577R HIV-1 = details: other studied HIV-1 strains; cited from earlier work
Description: (§2) Q577R has also been identified in viral resistance screens against other HIV-1 entry inhibitors that target the prehairpin intermediate. Against N-trimer peptides N44, N36, and IZN36, the C-peptide T2635, and the retrocyclin RC-101, Q577R is found in some or all of the resistant viruses and always accompanied by other gp41 mutation(s). By itself, Q577R provided only modest resistance to the N-trimer and C-peptide inhibitors (< threefold). Viral escape from a recently identified adnectin, 6200_A08, which similarly targets the gp41 hydrophobic pocket, ...

[5] = system: Q577R in patient pre-treatment env; details: patient's pre-treatment env; cited from earlier work
Description: as §2

HIV-1 = details: in vitro and in vivo; cited from earlier work
Description: The remarkable conservation of this gp41 hydrophobic pocket target is indicative of its critical roles in the viral life cycle and impedes the ability of the virus to combat inhibitors that target it. The region of the HIV-1 genome encoding the pocket is conserved at both the protein level (for the role of gp41 in membrane fusion during viral entry) and nucleotide level (due to a structured RNA region in the critical Rev-response element). The only FDA-approved HIV fusion inhibitor, enfuvirtide (Fuzeon), is an L-peptide derived from the gp41 C-peptide region that targets the gp41 N-trime ... || Q577R has also been identified in viral resistance screens against other HIV-1 entry inhibitors that target the prehairpin intermediate. Against N-trimer peptides N44, N36, and IZN36, the C-peptide T2635, and the retrocyclin RC-101, Q577R is found in some or all of the resistant viruses and always accompanied by other gp41 mutation(s). By itself, Q577R provided only modest resistance to the N-trimer and C-peptide inhibitors (< threefold). Viral escape from a recently identified adnectin, 6200_A08, which similarly targets the gp41 hydrophobic pocket, ...

Compound	Fold Difference ([1]; IC50 Q577R vs. WT)	C-peptide inhibition of Q577R compared to WT pseudoviruses [1]	impact of enfuvirtide resistance mutations [2]	weakening of the interaction [3]	weakening of the interaction (binding energy) [3] [kcal/mol]	IC50 ([1]; HXB2 Env Q577R pseudotyped HIV-1, luciferase reporter, HOS-LES cells, six fivefold dilutions in quadruplicate, average of two experiments (SD)) [nM]	IC50 [4] [nM]	level of resistance on passaging (HIV-1 strain NL4-3) [fold]	time to high-level resistance (HIV-1 strain NL4-3)	effect of Q577R on sensitivity (Q577R HIV-1)	resistance provided by Q577R [5] [fold]	emergence of gp41 resistance mutations (HIV-1)
CC[C@H](C)[C@H](NC(=O)[C@H](CCC(N)=O)NC(=O)[C@H](C)NC(=O)[C@H](CCC(N)=O)NC(=O)[C@H](CCC(=O)O)NC(=O)[C@H](CC(C)C)NC(=O)[C@H](CC(C)C)NC(=O)[C@H](C)NC(=O)[C@@H](NC(=O)[C@@H](NC(=O)[C@H](CCCCN)NC(=O)[C@H](CCC(N)=O)NC(=O)[C@H](CCC(=O)O)NC(=O)[C@H](Cc1c[nH]c2ccccc12)NC(=O)[C@H](CCC(=O)O)NC(=O)[C@H](CCC(N)=O)NC(=O)[C@H](Cc1c[nH]c2ccccc12)NC(C)=O)[C@@H](C)CC)[C@@H](C)O)C(=O)N[C@@H](CCC(N)=O)C(=O)N[C@@H](CCC(N)=O)C(=O)N[C@@H](CCC(=O)O)C(=O)N[C@@H](CCCCN)C(=O)N[C@@H](CC(N)=O)C(=O)N[C@@H](CCC(=O)O)C(=O)N[C@@H](Cc1ccc(O)cc1)C(=O)N[C@@H](CCC(=O)O)C(=O)N[C@@H](CC(C)C)C(=O)N[C@@H](CCC(N)=O)C(=O)N[C@@H](CCCCN)C(=O)N[C@@H](CC(C)C)C(=O)N[C@@H](CC(=O)O)C(=O)N[C@@H](CCCCN)C(=O)N[C@@H](Cc1c[nH]c2ccccc12)C(=O)N[C@@H](C)C(=O)N[C@@H](CO)C(=O)N[C@@H](CC(C)C)C(=O)N[C@@H](Cc1c[nH]c2ccccc12)C(=O)N[C@@H](CCC(=O)O)C(=O)N[C@@H](Cc1c[nH]c2ccccc12)C(=O)N[C@@H](Cc1ccccc1)C(N)=O [T1249]	1.2	only modest differences	much less impacted by enfuvirtide resistance mutations									
CC(=O)N[C@H](Cc1c[nH]cn1)C(=O)N1CCC[C@@H]1C(=O)N[C@@H]1CSSC[C@H](C(=O)N[C@H](CCC(=O)O)C(=O)N[C@H](CC(C)C)C(=O)NCC(=O)N[C@H](CCCCN)C(N)=O)NC(=O)[C@@H](CC(C)C)NC(=O)[C@@H](Cc2c[nH]c3ccccc23)NC(=O)[C@@H](CCC(N)=O)NC(=O)[C@@H](Cc2c[nH]c3ccccc23)NC(=O)[C@@H](CCC(=O)O)NC(=O)[C@H]2CCCN2C(=O)[C@@H](Cc2ccc(O)cc2)NC(=O)[C@@H](CC(=O)O)NC1=O [PIE12]				~ 65 fold	2.5							
enfuvirtide		only modest differences				5.33	1.62	> 1000	~ 3 weeks	minimally affected by Q577R	25	rapid emergence of gp41 resistance mutations
